Structures are written as SMILES. Where a name gives a salt, the structure may show the parent alone.

This experiment has as its target MCH receptor (Homo sapiens, UniProt Q99705). Put plainly: FLIPR/FDSS6000 functional assay: intracellular Ca2+ changes evoked by MCH. Type of experiment: cell-based. To be noted: class by percent of control at 10^−7 M or by IC50; antagonist activity, 50 nM of MCH; read-out: class. From the text: Subsequently, a functional based assay was used to confirm the lead hits, referred to as FLIPR™ (the Fluorometric Imaging Plate Reader) and FDSS6000™ (Functional Drug Screening System). This assay utilized a non-endogenous, constitutively active version of the MCH receptor.
The FLIPR and FDSS assays are able to detect intracellular Ca^2+ concentration in cells, which can be utilized to assess receptor activation and determine whether a candidate compound is an, for example, antagonist, inverse agonist or agonist to a Gq-coupled receptor. The concentration of free Ca^2+ in the cytosol of any cell is extremely low, whereas its concentration in the extracellular fluid and endoplasmic reticulum (ER) is very high. Thus, there is a large gradient tending to drive Ca^2+ into the cytosol across both the plasma membrane and ER. The FLIPR™ and FDSS6000™ systems (Molecular Devices Corporation, HAMAMATSU Photonics K.K.) are designed to perform functional cell-based assays, such as the measurement of intracellular calcium for high-throughput screening. The measurement of fluorescent is associated with calcium release upon activation of the Gq-coupled receptors.
Fluorometric Imaging Plate Reader system was used to allow for rapid, kinetic measurements of intracellular fluorescence in 96 well microplates (or 384 well microplates). Simultaneous measurements of fluorescence in all wells can be made by FLIPR or FDSS6000™ every second with high sensitivity and precision. These systems are ideal for measuring cell-based functional assays such as monitoring the intracellular calcium fluxes that occur within seconds after activation of the Gq coupled receptor.
Briefly, the cells are seeded into 96 well at 5.5×10^4 cells/well with complete culture media (Dulbecco's Modified Eagle Medium with 10% fetal bovine serum, 2 mM L-glutamine, 1 mM sodium pyruvate and 0.5 mg/mL G418, pH 7.4) for the assay next day. On the day of assay, the media is removed and the cells are incubated with 100 μl of loading buffer (4 μM Fluo-4-AM in complete culture media containing 2.5 mM Probenicid, 0.5 mg/ml and 0.2% bovine serum albumin) in 5% CO2 incubator at 37° C. for 1 hr. The loading buffer is removed, and the cells are washed with wash buffer (Hank's Balanced Salt Solution containing 2.5 mM Probenicid, 20 mM HEPES, 0.5 mg/mL and 0.2% bovine serum albumin, pH 7.4). One hundred fifty μl of wash buffer containing various concentrations of test compound is added to the cells, and the cells are incubated in 5% CO2 incubator at 37° C. for 30 min. Fifty μl of wash buffer containing various concentration of MCH are added to each well, and transient changes in [Ca^2+]i evoked by MCH are monitored using the FLIPR or FDSS in 96 well plates at Ex. 488 nm and Em. 530 nm for 290 second. When antagonist activity of compound is tested, 50 nM of MCH is used.
Use of FLIPR™ and FDSS6000™ can be accomplished by following manufacturer's instruction (Molecular Device Corporation and HAMAMATSU Photonics K.K.).
For `Cc1nc(N[C@H]2CC[C@@H](NC(=O)c3cc(Cl)cc(Cl)c3)CC2)cc(N(C)C)n1` [Example 21, 3,5-Dichloro-N-(cis-4-{[6-(dimethylamino)-2-methylpyrimidin-4-yl]amino}cyclohexyl)-benzamide hydrochloride], the IC50 is < 0.05 µM.
Turning to `Cc1nc(N[C@H]2CC[C@@H](NC(=O)c3cc(F)c(F)c(F)c3)CC2)cc(N(C)C)n1` [Example 11, N-(cis-4-{[6-(Dimethylamino)-2-methylpyrimidin-4-yl]amino}cyclohexyl)-3,4,5-trifluorobenzamide hydrochloride], the IC50 is < 0.05 µM.
Turning to `Cc1nc(N[C@H]2CC[C@@H](NC(=O)c3ccc(F)c(Cl)c3)CC2)cc(N2CCCCC2)n1` [Example 37, 3-Chloro-4-fluoro-N-{cis-4-[(2-methyl-6-piperidin-1-ylpyrimidin-4-yl)amino]cyclohexyl}-benzamide hydrochloride], the IC50 was > 0.2 µM.
On to `Cc1nc(N[C@H]2CC[C@@H](C(=O)Oc3ccc(F)c(Cl)c3)CC2)cc(N(C)C)n1` [Example 194, 3-Chloro-4-fluorophenyl cis-4-{[6-(dimethylamino)-2-methylpyrimidin-4-yl]amino}-cyclohexanecarboxylate hydrochloride], for which the IC50 is > 0.2 µM.
`CN(C)c1cc(N[C@H]2CC[C@@H](NCc3ccc(Br)cc3OC(F)(F)F)CC2)ncn1` [Example 1, N′-(cis-4-{[4-Bromo-2-(trifluoromethoxy)benzyl]amino}cyclohexyl)-N,N-dimethylpyrimidine-4,6-diamine dihydrochloride]: the IC50 is > 0.2 µM.
In the case of `Cc1nc(N[C@H]2CC[C@@H](C(=O)Nc3ccc(F)c(Cl)c3)CC2)cc(N(C)C)n1` [Example 191, cis-N-(3-Chloro-4-fluorophenyl)-4-{[6-(dimethylamino)-2-methylpyrimidin-4-yl]amino}cyclohexanecarboxamide hydrochloride] it was < 0.05 µM.
To `Cc1nc(N)cc(N[C@H]2CC[C@@H](NC(=O)c3cc(F)c(F)c(F)c3)CC2)n1` [Example 168, N-{cis-4-[(6-Amino-2-methylpyrimidin-4-yl)amino]cyclohexyl}-3,4,5-trifluorobenzamide hydrochloride] belongs > 0.2 µM; to `Cc1nc(N[C@H]2CC[C@@H](NC(=O)c3ccc(C(F)(F)F)cc3)CC2)cc(N(C)C)n1` [Example 19, N-(cis-4-{[6-(Dimethylamino)-2-methylpyrimidin-4-yl]amino}cyclohexyl)-4-(trifluoromethyl)benzamide hydrochloride], > 0.2 µM.
As for `Cc1nc(N[C@H]2CC[C@@H](NC(=O)c3cc(F)c(F)c(F)c3)CC2)cc(N(C)Cc2ccccc2)n1` [Example 175, N-[cis-4-({6-[Benzyl(methyl)amino]-2-methylpyrimidin-4-yl}amino)cyclohexyl]-3,4,5-trifluorobenzamide hydrochloride], the IC50 is > 0.2 µM.
`Cc1nc(N[C@H]2CC[C@@H](NC(=O)c3ccc(F)c(Cl)c3)CC2)cc(N2CCCC2)n1` [Example 40, 3-Chloro-4-fluoro-N-{cis-4-[(2-methyl-6-pyrrolidin-1-ylpyrimidin-4-yl)amino]cyclohexyl}-benzamide hydrochloride]: the IC50 is < 0.05 µM.
In the case of `CCc1nc(N[C@H]2CC[C@@H](NC(=O)c3cc(F)c(F)c(F)c3)CC2)cc(N(C)C)n1` [Example 177, N-(cis-4-{[6-(Dimethylamino)-2-ethylpyrimidin-4-yl]amino}cyclohexyl)-3,4,5-trifluorobenzamide hydrochloride], the IC50 is < 0.05 µM.
To `Cc1nc(N[C@H]2CC[C@@H](NC(=O)c3ccc(OC(F)(F)F)cc3)CC2)cc(N(C)C)n1` [Example 20, N-(cis-4-{[6-(Dimethylamino)-2-methylpyrimidin-4-yl]amino}cyclohexyl)-4-(trifluoromethoxy)benzamide hydrochloride] belongs > 0.2 µM; to `Cc1nc(N[C@H]2CC[C@@H](C(=O)Nc3cc(Cl)cc(Cl)c3)CC2)cc(N(C)C)n1` [Example 195, cis-N-(3,5-Dichlorophenyl)-4-{[6-(dimethylamino)-2-methylpyrimidin-4-yl]amino}-cyclohexanecarboxamide hydrochloride], > 0.2 µM.
Take `Cc1nc(N[C@H]2CC[C@@H](NC(=O)c3ccc(Cl)c(F)c3)CC2)cc(N(C)C)n1` [Example 9, 4-Chloro-N-(cis-4-{[6-(dimethylamino)-2-methylpyrimidin-4-yl]amino}cyclohexyl)-3-fluorobenzamide hydrochloride]: the IC50 lay in the range of 0.05 to 0.2 µM.
In the case of `Cc1nc(N[C@H]2CC[C@@H](NC(=O)c3cncc(Br)c3)CC2)cc(N(C)C)n1` [Example 12, 5-Bromo-N-(cis-4-{[6-(dimethylamino)-2-methylpyrimidin-4-yl]amino}cyclohexyl)-nicotinamide dihydrochloride], the IC50 fell in the range of 0.05 to 0.2 µM.
For the molecule `Cc1nc(N[C@H]2CC[C@@H](C(=O)Oc3ccc(F)c(F)c3)CC2)cc(N(C)C)n1` [Example 196, 3,4-Difluorophenyl cis-4-{[6-(dimethylamino)-2-methylpyrimidin-4-yl]amino}-cyclohexanecarboxylate hydrochloride], the IC50 was > 0.2 µM.
To `CN(C)c1cc(N[C@H]2CC[C@@H](NC(=O)c3ccc(F)c(Cl)c3)CC2)nc(C(F)(F)F)n1` [Example 47, 3-Chloro-N-(cis-4-{[6-(dimethylamino)-2-(trifluoromethyl)pyrimidin-4-yl]amino}cyclohexyl)-4-fluorobenzamide hydrochloride] belongs > 0.2 µM.
Consider `Cc1nc(N[C@H]2CC[C@@H](NC(=O)c3ccc(OC(F)(F)F)c(Cl)c3)CC2)cc(N(C)C)n1` [Example 16, 3-Chloro-N-(cis-4-{[6-(dimethylamino)-2-methylpyrimidin-4-yl]amino}cyclohexyl)-4-(trifluoromethoxy)benzamide hydrochloride], for which the IC50 lay within 0.05 to 0.2 µM.
On to `Cc1nc(N[C@H]2CC[C@@H](NC(=O)c3cc(F)cc(C(F)(F)F)c3)CC2)cc(N(C)C)n1` [Example 26, N-(cis-4-{[6-(Dimethylamino)-2-methylpyrimidin-4-yl]amino}cyclohexyl)-3-fluoro-5-(trifluoromethyl)benzamide hydrochloride], for which the IC50 is 0.05 to 0.2 µM.
Regarding `CCN(C)c1cc(N[C@H]2CC[C@@H](NC(=O)c3cc(F)c(F)c(F)c3)CC2)nc(C)n1` [Example 176, N-[cis-4-({6-[Ethyl(methyl)amino]-2-methylpyrimidin-4-yl}amino)cyclohexyl]-3,4,5-trifluorobenzamide hydrochloride], the IC50 is > 0.2 µM.
`Cn1ccc2c(N[C@H]3CC[C@@H](NC(=O)c4cc(F)c(F)c(F)c4)CC3)ncnc21` [Example 188, 3,4,5-Trifluoro-N-{cis-4-[(7-methyl-7H-pyrrolo[2,3-d]pyrimidin-4-yl)amino]cyclohexyl}benzamide hydrochloride]: the IC50 lay within 0.05 to 0.2 µM.
With `Cc1nc(N[C@H]2CC[C@@H](NC(=O)c3cc(F)c(F)c(F)c3)CC2)cc(N(C)c2ccccc2)n1` [Example 174, 3,4,5-Trifluoro-N-[cis-4-({2-methyl-6-[methyl(phenyl)amino]pyrimidin-4-yl}amino)-cyclohexyl]benzamide hydrochloride], the IC50 is > 0.2 µM.
In the case of `Cc1nc(N[C@H]2CC[C@@H](NC(=O)c3ccc(F)c(Cl)c3)CC2)cc(N2CCN(C)CC2)n1` [Example 41, 3-Chloro-4-fluoro-N-(cis-4-{[2-methyl-6-(4-methylpiperazin-1-yl)pyrimidin-4-yl]amino}-cyclohexyl)benzamide dihydrochloride], the IC50 is > 0.2 µM.
Turning to `Cc1nc(N[C@H]2CC[C@@H](NC(=O)c3ccc(F)c(Cl)c3)CC2)c(F)c(N(C)C)n1` [Example 181, 3-Chloro-N-(cis-4-{[6-(dimethylamino)-5-fluoro-2-methylpyrimidin-4-yl]amino}cyclohexyl)-4-fluorobenzamide hydrochloride], the IC50 is > 0.2 µM.
Turning to `CCN(C)c1nccc(N[C@H]2CC[C@@H](NC(=O)c3ccc(F)c(F)c3)CC2)n1` [Example 35, N-[cis-4-({2-[Ethyl(methyl)amino]pyrimidine-4-yl}amino)cyclohexyl]-3,4-difluorobenzamide hydrochloride], the IC50 was > 0.2 µM.

For the origin of these results see patent US20090036448A1, “PYRIMIDINE DERIVATIVES AND METHODS OF TREATMENT RELATED TO THE USE THEREOF” (TAISHO PHARMECUTICAL CO., LTD., priority 2004, published 2009).
